Source: US20230414634A1, “METHODS FOR TREATING CHOLESTATIC PRURITUS” (GlaxoSmithKline Intellectual Property (No.2) Limited, priority 2020, published 2023)

Tests used:
[1] = tested on: patients with PBC and cholestatic pruritus; assay: GLIMMER Phase 2b study (NCT02966834): itch efficacy and PBC-40 quality of life; format: in vivo, human; settings: for mean increase in itch responder days: difference from placebo, 12 weeks' treatment
Excerpt: Measurement of Itch (pruritus)—10 Point Numerical Rating Scale (NRS) • Itch Score: itch scores recorded by study participants twice daily; a 0-10 Numerical Rating Scale (NRS) is used to assess itch with a response option of 0 representing no itching and 10 the worst imaginable itching • Worst Daily Itch Score: the worst of two itch scores recorded by a patient daily is considered the score for that day (i.e. the most severe (highest) NRS recorded on a given day) • Mean Worst Daily Itch Score (Weekly Itch Score [WIS]): the average of the Worst Daily Itch Scores in one week (7 days) • Monthly Itch Score (MIS): the worst Mean Worst Daily Itch Score for that month (i.e., worst week score of the 4 weeks) • Itch Response: for example, ≥2-point improvement in mean Worst Daily Itch Score from Baseline • Itch Responder Days: days when the Itch Response definition is met (i.e. days with an Itch Response) • Itch Severity: measured using 0-10 NRS; moderate to severe is ≥4 NRS • Baseline (itch score at the end of the placebo period before treatment,) is the average of the itch scores in the 7 days prior to randomisation (in Example 2, prior to randomisation at Week 4) • Change from Baseline was calculated as the post-Baseline value minus the Baseline value.
GLIMMER trial: Phase 2b study (NCT02966834; GSK study 201000). A randomized, double-blind, placebo-controlled study of linerixibat, an inhibitor of the ileal bile acid transporter, in the treatment of cholestatic pruritus in primary biliary cholangitis, for patients with PBC and pruritus.
The twice daily patient-reported 0-10 Numerical Rating Scale (NRS) worst itch assessment was employed, with the worst value from each day used to calculate the mean worst daily itch, which was then used to assess change in pruritus. This measure has independent content validity in PBC; similar measures are psychometrically valid and have been used to determine changes in itch intensity in PBC.
Patients with PBC with pruritus (≥4 on 0-10 numeric rating scale [NRS]) were enrolled; double-blind treatment was preceded and followed by 4 weeks' single-blind placebo.
At Week 4, patients with NRS ≥3 were randomized,(4:1) to double-blind linerixibat or placebo for 12 weeks (to Week 16), followed by single-blind placebo (to Week 20).
Primary endpoint: mean change from baseline in mean Worst Daily Itch Score at Week 16. Participants were required to score the severity of their itching using the 0-10 NRS, from which the Worst Daily Itch Score is obtained, and the Mean Worst Daily Itch score was calculated as the average of the worst daily itch scores provided in the 7 days prior to the Week 16 visit. Baseline is the average of the scores in the 7 days prior to the Week 4, and the Change from Baseline was calculated. Analysis was done using Analysis of covariance (ANCOVA) including treatment group and centered Mean Worst Daily Itch score at Baseline.
Secondary and exploratory endpoints: itch efficacy, quality of life (PBC-40) and pharmacodynamic biomarkers, and safety and tolerability.
Ad hoc endpoint: change from baseline itch compared with Monthly Itch Score over the main study period.
Due to the potential fluctuation of itch over time, an additional post-hoc analysis was conducted on the primary endpoint according to the FDA preferred approach to evaluate the effect over the entire 12 weeks treatment duration using Monthly Itch Score. A mixed model repeated measures (or mixed-effect repeated measure model) (MMRM) analysis estimated the effect of linerixibat comparing to placebo over the entire 12 weeks treatment duration.

[2] = tested on: TSBA, C4, FGF-19, serum autotaxin and LDL cholesterol; assay: GLIMMER Phase 2b study: pharmacodynamic serum biomarkers; format: in vivo, human
Excerpt: The following biomarkers are useful in clinical investigations relating to the treatment of pruritus, particularly cholestatic pruritus:
Serum 7-α-hydroxy-4-cholesten-3-one (C4)
C4 is an intermediate in the biochemical synthesis of bile acids from cholesterol. C4 concentrations reflect the activity of the bile acid synthetic pathway.
FGF-19 a protein which functions as a hormone, regulating bile acid synthesis, with effects on glucose and lipid metabolism.
Autotaxin is the enzyme that produces lysophosphatidic acid (LPA) which is found to correlate with itch intensity.
LDL one of the five major groups of lipoprotein which transport all fat molecules around the body in the extracellular water.
TSBA are metabolized in the liver and can serve as a marker for normal liver function.
Measurement of Level of Pharmacodynamic Biomarkers
Total serum bile acids (TSBA) (FIG. 10)
Serum 7-α-hydroxy-4-cholesten-3-one (C4) (FIG. 2)
Serum fibroblast growth factor-19 (FGF-19) (FIG. 7)
Serum LDL (low-density lipoprotein) cholesterol (FIG. 9)
Further analysis of biomarker parameters provided clear indication of pharmacological action with decreases in total serum bile acids (TSBA), increases in the serum bile acid precursor C4 (7-a-hydroxy-4-cholesten-3-one) and corresponding mean decreases in fibroblast growth factor 19 (FGF-19), a hormone that regulates bile acid synthesis. […] Reductions in FGF-19 and autotaxin were also observed across most treatment groups during the main study period (excluding placebo for FGF-19 and linerixibat 20 mg QD for autotaxin) (FIG. 7, FIG. 8).

SMILES: CCCC[C@]1(CC)CS(=O)(=O)c2cc(CNC(CC(=O)O)CC(=O)O)c(OC)cc2[C@@H](c2ccccc2)N1 [linerixibat]
- responder days vs placebo ([1]; 40 mg BID and 90 mg BID): Significantly more
- Mean Worst Daily Itch Score of patients with moderate to severe itch at baseline, versus placebo ([1]; 40 mg BID, 12 weeks treatment): Significant difference
- PBC-40 emotional domain, LS Mean difference vs placebo ([1]; 40 mg BID, 95% CI: −1.9, 0.3): −0.8
- PBC-40 social domain, LS Mean difference vs placebo ([1]; 40 mg BID, 95% CI: −4.8, 0.1): −2.4
- mean increase in itch responder days ([1]; 40 mg BID): 20%
- LS Mean Change from Baseline vs Placebo in Monthly Itch Score over 12 weeks treatment (MMRM, post-hoc) ([1]; 40 mg BID, p=0.011): -1.16
- Monthly Itch Score, improvement from baseline over 12 weeks treatment ([1]; 40 mg and 90 mg BID, 180 mg QD): Significant improvement
- mean increase in itch responder days ([1]; 90 mg BID): 27%
- LS Mean Change from Baseline vs Placebo in Monthly Itch Score over 12 weeks treatment (MMRM, post-hoc) ([1]; 90 mg BID, p=0.037): −0.95
- LS Mean Change from Baseline vs Placebo in Monthly Itch Score over 12 weeks treatment (MMRM, post-hoc) ([1]; 180 mg QD, p=0.042): −0.90
- pre-specified primary endpoint: dose response across dose ranges ([1]; ITT and per protocol populations): could not be established
- mean Worst Daily Itch Score ([1]; all linerixibat doses): rapid improvement
- PBC-40 itch domain, change from baseline after 12 weeks ([1]; all treatment groups including placebo, p≤0.05): significant improvement
- FGF-19 mean change from baseline compared with placebo (ANCOVA) ([2]; 40 mg BID): statistically significant reductions
- serum C4 increase ([2]; 40 mg BID and 90 mg BID doses): largest increase
- serum autotaxin concentration compared with placebo ([2]; 40 mg BID, Week 16): significantly decreased
- C4 LS mean ratio increases from baseline (MMRM) ([2]; 180 mg QD and both BID treatment groups): largest increases
- LDL cholesterol compared to the placebo group ([2]; Week 16, all linerixibat treatment groups with the exception of 20 mg QD): significantly reduced
- fibroblast growth factor-19 (FGF-19) reduction ([2]; two BID doses of 40 mg and 90 mg): greatest reduction
- total serum bile acids (TSBA) compared with baseline (MMRM) ([2]; week 16, 40 mg and 90 mg BID): statistically significant decrease
